The structures appear in SMILES notation.

The text below walks through data of patent US9101785B2, “Use of 2,3-dihydroxypropyl dodecanoate for treating seborrhoea” (PIERRE FABRE DERMO-COSMETIQUE, priority 2009, dated 2015).

In the assay the test system is 5-α reductase enzyme. Kind of assay: Inhibition of 5-α reductase activity: conversion of [4-14C]testosterone to DHT by normal human dermal fibroblasts (NHDF). It is filed as cell-based.

`CC(C)(C)NC(=O)[C@H]1CC[C@H]2[C@@H]3CC[C@H]4NC(=O)C=C[C@]4(C)[C@H]3CC[C@]12C` [finasteride, reference compound]: the “testosterone metabolisation to DHT / 5-α reductase activity (in words)” value (positive control tested at 10 μM) was “lowers testosterone metabolisation to DHT significantly”.

For the molecule `CCCCCCCCCCCC(=O)OCC(O)CO` (stereo not drawn) [2,3-dihydroxypropyl dodecanoate], the “5-α reductase enzyme activity (reduced to)” value (75 μM test compound, 24 h pre-incubation then 24 h with radiolabelled testosterone, DHT quantified by TLC/phosphorImager) was 66%. For the same molecule, the “inhibition of 5-α reductase activity (in words)” value (dose-effect observed, FIG. 1) is recorded as “inhibition of 5-α reductase activity is also observed”.
